Results from article PMC9303312, “Balancing Histone Deacetylase (HDAC) Inhibition and Drug‐likeness: Biological and Physicochemical Evaluation of Class I Selective HDAC Inhibitors” (Chemmedchem, 2022).
Values after ≈ are worked out from the molar mass of the structure shown.

What was measured:
[1] = molecular target: T1, HDAC2 (Homo sapiens, UniProt Q92769); experiment: In vitro HDAC inhibition preincubation assay (ZMAL substrate)
[2] = molecular target: T2, human recombinant HDAC6 (Homo sapiens, UniProt Q9UBN7); experiment: as above
T2 sequence (Q9UBN7 1-1215): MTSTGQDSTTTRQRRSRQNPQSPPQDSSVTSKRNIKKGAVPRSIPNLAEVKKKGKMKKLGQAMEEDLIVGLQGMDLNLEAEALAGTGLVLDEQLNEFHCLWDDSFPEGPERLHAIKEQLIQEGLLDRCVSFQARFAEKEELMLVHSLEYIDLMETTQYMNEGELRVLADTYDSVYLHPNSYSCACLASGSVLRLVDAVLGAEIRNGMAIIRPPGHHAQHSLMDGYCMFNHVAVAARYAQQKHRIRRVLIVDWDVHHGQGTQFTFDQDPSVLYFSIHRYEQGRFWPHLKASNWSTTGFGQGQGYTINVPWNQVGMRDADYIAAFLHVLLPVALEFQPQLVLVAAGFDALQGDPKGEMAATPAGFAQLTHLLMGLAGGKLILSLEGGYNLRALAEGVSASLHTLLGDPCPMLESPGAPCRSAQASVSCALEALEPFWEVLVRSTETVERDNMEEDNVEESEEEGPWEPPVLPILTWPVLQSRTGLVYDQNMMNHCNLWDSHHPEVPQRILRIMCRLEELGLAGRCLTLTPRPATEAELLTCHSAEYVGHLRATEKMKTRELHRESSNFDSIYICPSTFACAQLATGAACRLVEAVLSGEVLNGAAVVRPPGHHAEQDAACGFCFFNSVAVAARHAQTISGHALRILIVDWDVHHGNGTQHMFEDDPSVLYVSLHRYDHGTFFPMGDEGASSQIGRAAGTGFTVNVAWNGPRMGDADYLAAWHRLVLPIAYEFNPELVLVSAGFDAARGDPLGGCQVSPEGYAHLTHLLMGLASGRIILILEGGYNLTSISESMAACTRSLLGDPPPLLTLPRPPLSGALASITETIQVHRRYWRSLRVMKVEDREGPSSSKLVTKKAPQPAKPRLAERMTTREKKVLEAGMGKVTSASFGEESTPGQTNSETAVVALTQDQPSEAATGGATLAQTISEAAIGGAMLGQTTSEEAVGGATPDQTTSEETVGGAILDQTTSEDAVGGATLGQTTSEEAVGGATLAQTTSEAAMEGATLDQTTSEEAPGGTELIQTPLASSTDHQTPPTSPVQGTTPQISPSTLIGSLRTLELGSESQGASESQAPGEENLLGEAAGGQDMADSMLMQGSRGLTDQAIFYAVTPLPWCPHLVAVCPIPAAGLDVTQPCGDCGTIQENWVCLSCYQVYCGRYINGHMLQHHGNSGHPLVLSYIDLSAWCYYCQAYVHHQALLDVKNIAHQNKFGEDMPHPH

[3] = Solubility in PBS buffer by OECD flask method with HPLC quantification; type: physicochemical; conditions: 25 °C, pH 7.4, aqueous buffer, thermodynamic from solid, pH=7.4, flask method, 25 °C, 72 h, mean ±SD, read-out: Solubility
[4] = LogD7.4 by OECD slow-stirring method with HPLC quantification; conditions: 1-octanol/PBS buffer (mutually saturated), pH 7.4, LogD7.4, slow-stirring method, 1-octanol/PBS buffer pH 7.4, 25 °C, 48 h
[5] = molecular target: T3, HDAC1 (Homo sapiens, UniProt Q13547); experiment: In vitro HDAC inhibition preincubation assay (ZMAL substrate)
[6] = molecular target: HDAC3/NcoR2 (Homo sapiens, UniProt O15379); experiment: as above
[7] = tested on: MCF‐7 breast cancer cell line; experiment: WST-8 cell viability assay; conditions: Homo sapiens, MCF7, 120 h, read-out: IC50 MCF‐7
[8] = tested on: T‐47D breast cancer cell line; experiment: WST-8 cell viability assay; conditions: Homo sapiens, T47D, 120 h, read-out: IC50 T‐47D
[9] = tested on: BT‐474 breast cancer cell line; experiment: WST-8 cell viability assay; conditions: Homo sapiens, BT-474, 120 h, read-out: IC50 BT‐474
[10] = tested on: MCF‐7 cells; experiment: Modified wound healing (migration) assay; type: cell-based, human; conditions: MCF-7, 10 μM, followed over 97 h, compared to DMSO control
[11] = molecular target: T3, HDAC1; experiment: Binding kinetics via the Progression Method; type: biochemical; conditions: relationship between kobs and [I]; triplicates
[12] = tested on: acetylated α‐tubulin (HDAC6 activity) in MCF‐7 cells; experiment: Western blot target engagement in MCF-7 cells: acetylated α-tubulin; type: cell-based, human; conditions: MCF-7 cell lysates after 24-hour treatment
[13] = molecular target: T1, HDAC2; experiment: IC50-shift experiments (varied preincubation time); type: biochemical; parameters: purchased BPS Bioscience 50052; conditions: triplicates

T3 sequence (Q13547 whole entry): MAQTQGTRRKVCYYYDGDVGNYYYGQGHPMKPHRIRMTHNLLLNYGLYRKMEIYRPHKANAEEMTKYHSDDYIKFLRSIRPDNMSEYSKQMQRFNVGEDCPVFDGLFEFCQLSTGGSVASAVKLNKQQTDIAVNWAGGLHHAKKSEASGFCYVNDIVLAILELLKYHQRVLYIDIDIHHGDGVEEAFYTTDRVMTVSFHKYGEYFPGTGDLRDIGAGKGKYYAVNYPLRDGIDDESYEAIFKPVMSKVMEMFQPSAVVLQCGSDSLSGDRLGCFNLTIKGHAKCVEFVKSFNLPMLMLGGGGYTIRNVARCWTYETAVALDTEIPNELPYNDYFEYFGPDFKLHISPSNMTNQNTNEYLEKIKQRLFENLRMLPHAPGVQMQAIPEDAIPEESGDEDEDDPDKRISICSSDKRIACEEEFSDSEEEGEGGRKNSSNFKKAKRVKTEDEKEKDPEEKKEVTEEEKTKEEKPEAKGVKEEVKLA
T1 sequence (Q92769 whole entry): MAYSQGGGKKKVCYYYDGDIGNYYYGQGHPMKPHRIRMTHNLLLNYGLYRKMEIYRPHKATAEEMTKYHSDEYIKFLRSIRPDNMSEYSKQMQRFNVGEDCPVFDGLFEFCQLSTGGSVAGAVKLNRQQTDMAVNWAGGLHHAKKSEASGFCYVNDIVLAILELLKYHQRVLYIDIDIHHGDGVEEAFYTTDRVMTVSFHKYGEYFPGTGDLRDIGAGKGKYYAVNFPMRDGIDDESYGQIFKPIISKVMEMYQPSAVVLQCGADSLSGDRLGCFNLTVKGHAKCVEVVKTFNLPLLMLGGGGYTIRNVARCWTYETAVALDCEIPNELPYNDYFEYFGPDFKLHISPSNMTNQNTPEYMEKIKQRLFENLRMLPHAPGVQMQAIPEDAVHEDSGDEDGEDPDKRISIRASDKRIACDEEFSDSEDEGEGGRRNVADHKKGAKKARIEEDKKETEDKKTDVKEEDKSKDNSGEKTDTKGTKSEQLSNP
Chain of HDAC3/NcoR2 (O15379 whole entry): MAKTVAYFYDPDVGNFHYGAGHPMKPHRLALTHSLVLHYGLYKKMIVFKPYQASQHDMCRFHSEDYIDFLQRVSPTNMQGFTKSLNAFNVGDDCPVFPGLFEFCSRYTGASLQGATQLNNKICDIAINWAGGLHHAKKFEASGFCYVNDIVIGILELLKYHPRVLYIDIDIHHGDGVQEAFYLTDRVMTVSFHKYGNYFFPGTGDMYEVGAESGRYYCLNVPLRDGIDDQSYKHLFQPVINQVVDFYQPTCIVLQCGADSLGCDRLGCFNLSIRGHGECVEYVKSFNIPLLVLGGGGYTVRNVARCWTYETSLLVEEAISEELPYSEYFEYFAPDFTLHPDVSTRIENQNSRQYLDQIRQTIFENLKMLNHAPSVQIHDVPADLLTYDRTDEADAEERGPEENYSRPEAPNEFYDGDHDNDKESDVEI
Chain of HDAC3/NcoR2 (Q9Y618 395-489 partner limits assumed): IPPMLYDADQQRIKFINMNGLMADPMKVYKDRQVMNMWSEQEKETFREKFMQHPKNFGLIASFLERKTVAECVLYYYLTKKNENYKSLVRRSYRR

Row | IC50 [1] [nM] | IC50 [2] [nM] | solubility at 72 h [3] [µg/mL] | logD at 48 h [4] | IC50 [5] [nM] | IC50 [6] [nM] | IC50 [7] [nM] | IC50 [8] [nM] | IC50 [9] [nM] | IC50 ([13]; HDAC2 IC50, preincubation 5 min, preincubation time 5 min at 20°C) [nM] | IC50 ([13]; HDAC2 IC50, preincubation 15 min, preincubation time 15 min at 20°C) [nM] | IC50 ([13]; HDAC2 IC50, preincubation 30 min, preincubation time 30 min at 20°C) [nM] | IC50 ([13]; HDAC2 IC50, preincubation 60 min, preincubation time 60 min at 20°C) [nM] | IC50 ([13]; HDAC2 IC50, preincubation 120 min, preincubation time 120 min at 20°C) [nM] | SMILES | effect on cell migration (wound closure) [10] | binding mechanism at HDAC1 [11] | acetylated α‐tubulin (western blot) [12] | effect on cell migration (wound closure) ([10]; listed as LSH‐A54)
1 | 101 ± 5.4 | > 10000 | 37.7 ± 3.61 (≈ 109 µM) | 1.7 | 76.7 ± 9.2 | 636 ± 49.5 | – | – | – | – | – | – | – | – | CC(=O)Nc1ccc(C(=O)Nc2cc(-c3cccnc3)ccc2N)cc1 [6 e] | – | – | – | –
2 | 85.5 ± 11.6 | > 10000 | 1.99 ± 0.04 (≈ 3.29 µM) | 2.68 | 41.1 ± 3.7 | > 3330 | 4330 ± 1540 | 1450 ± 90 | 2930 ± 430 | – | – | – | – | – | CN(C)c1ccc(C(=O)N(CC(=O)NC2CCCCC2)Cc2ccc(C(=O)Nc3cc(-c4ccncc4)ccc3N)cc2)cc1 [10 b] | – | – | – | –
3 | 211 ± 5.4 | > 10000 | 3.72 ± 0.44 (≈ 10.2 µM) | 2.2 | 329 ± 20.8 | 5870 | – | – | – | – | – | – | – | – | CC(=O)Nc1ccc(C(=O)Nc2cc(-c3ccnc(F)c3)ccc2N)cc1 [6 i] | – | – | – | –
4 | – | – | 200 ± 1.8 (≈ 743 µM) | 0.84 | – | – | – | – | – | – | – | – | – | – | CC(=O)Nc1ccc(C(=O)Nc2ccccc2N)cc1 [CI‐994, tacedinaline, reference compound] | – | – | – | –
5 | 228 ± 7.8 | > 10000 | 1.58 ± 0.14 (≈ 4.34 µM) | 1.79 | 153 ± 22.1 | 2870 | – | – | – | – | – | – | – | – | CC(=O)Nc1ccc(C(=O)Nc2cc(-c3cccnc3F)ccc2N)cc1 [6 h] | – | – | – | –
6 | 118 ± 4 | > 10000 | 7.66 ± 0.08 (≈ 21 µM) | 1.97 | 93.5 ± 2.4 | 767 ± 31.7 | – | – | – | – | – | – | – | – | CC(=O)Nc1ccc(C(=O)Nc2cc(-c3ccc(F)nc3)ccc2N)cc1 [6 g] | – | – | – | –
7 | 51.4 ± 4.9 | > 10000 | 1.49 ± 0.14 (≈ 4.31 µM) | 2.63 | 4.5 ± 0.1 | 3960 | – | – | – | – | – | – | – | – | CC(=O)Nc1ccc(C(=O)Nc2cc(-c3ccccc3)ccc2N)cc1 [6 a] | – | – | – | –
8 | – | – | 0.74 ± 0.01 (≈ 2.11 µM) | 2.8 | – | – | – | – | – | – | – | – | – | – | CC(=O)Nc1ccc(C(=O)Nc2cc(-c3cccs3)ccc2N)cc1 [6 c] | – | – | – | –
9 | 44.7 ± 6.9 | > 10000 | 0.45 ± 0.04 (≈ 1.24 µM) | 3.41 | 4.4 ± 0.1 | 2000 | – | – | – | – | – | – | – | – | CC(=O)Nc1ccc(C(=O)Nc2cc(-c3ccc(F)cc3)ccc2N)cc1 [6 b] | – | – | – | –
10 | 59.3 ± 7.9 | > 10000 | 7.48 ± 0.33 (≈ 12.9 µM) | 2.29 | – | 16800 | 1620 ± 320 | 1580 ± 480 | 2550 ± 400 | 117 | 106 | 109 | 84 | 78.1 | CN(C)c1ccc(C(=O)N(CC(=O)NC(C)(C)C)Cc2ccc(C(=O)Nc3cc(-c4ccncc4)ccc3N)cc2)cc1 [10 c] | attenuated cell migration comparably and significantly | – | non‐detectable | attenuated cell migration significantly
11 | 333 ± 5.1 | > 10000 | 42 ± 0.19 (≈ 121 µM) | 1.77 | 207 ± 4.4 | 17400 | – | – | – | – | – | – | – | – | CC(=O)Nc1ccc(C(=O)Nc2cc(-c3ccccn3)ccc2N)cc1 [6 f] | – | – | – | –
12 | 100 ± 2.6 | – | – | – | 41.8 ± 0.2 | > 6670 | 3240 ± 820 | 2570 ± 930 | 3930 ± 560 | – | – | – | – | – | CN(C)c1ccc(C(=O)N(CC(=O)NCc2ccccc2)Cc2ccc(C(=O)Nc3cc(-c4ccncc4)ccc3N)cc2)cc1 [10 a] | – | – | – | –

Row | SMILES | IC50 [1] [nM] | IC50 [2] [nM] | solubility at 72 h [3] [µg/mL] | logD at 48 h [4] | IC50 [5] [nM] | IC50 [6] [nM] | IC50 [7] [nM] | IC50 [8] [nM] | IC50 [9] [nM] | IC50 ([13]; HDAC2 IC50, preincubation 5 min, preincubation time 5 min at 20°C) [nM] | IC50 ([13]; HDAC2 IC50, preincubation 15 min, preincubation time 15 min at 20°C) [nM] | IC50 ([13]; HDAC2 IC50, preincubation 30 min, preincubation time 30 min at 20°C) [nM] | IC50 ([13]; HDAC2 IC50, preincubation 60 min, preincubation time 60 min at 20°C) [nM] | IC50 ([13]; HDAC2 IC50, preincubation 120 min, preincubation time 120 min at 20°C) [nM] | effect on cell migration (wound closure) [10] | binding mechanism at HDAC1 [11] | acetylated α‐tubulin (western blot) [12] | effect on cell migration (wound closure) ([10]; listed as LSH‐A54)
13 | Nc1ccccc1NC(=O)c1ccc(CNC(=O)OCc2cccnc2)cc1 [entinostat, reference compound] | – | – | – | – | – | – | 8980 ± 3000 | 2910 ± 890 | 7090 ± 1000 | – | – | – | – | – | no significant effect on cell migration | slow-binding Mechanism II | non‐detectable | –
